ChEMBL document CHEMBL3751801, “Synthesis of novel polybrominated benzimidazole derivatives-potential CK2 inhibitors with anticancer and proapoptotic activity” (Bioorg Med Chem, 2016)

Assays:
[1] = target: Casein kinase II subunit alpha (Homo sapiens, UniProt P68400); assay: Inhibition of recombinant human CK2alpha using RRRDDDSDDD substrate peptide by scintillation counter in presence of [32P]ATP
[2] = target: T1, CDK2/Cyclin A2 (Homo sapiens) (UniProt P24941+P20248); assay: Inhibition of CDK2/CycA2 (unknown origin) assessed as enzyme activity at 5 microM; type: protein-complex assay; design: scale not given: the % may be the effect or the level left
[3] = target: Casein kinase I isoform alpha (Homo sapiens) (UniProt P48729); assay: Inhibition of CK1-alpha1 (unknown origin) assessed as enzyme activity at 5 uM; design: scale not given: the % may be the effect or the level left
[4] = target: Dual specificity tyrosine-phosphorylation-regulated kinase 1A (Homo sapiens) (UniProt Q13627); assay: Inhibition of DYRK1A (unknown origin) assessed as enzyme activity at 5 uM; design: scale not given: the % may be the effect or the level left
[5] = target: Mitogen-activated protein kinase 3 (Homo sapiens) (UniProt P27361); assay: Inhibition of Erk1 (unknown origin) assessed as enzyme activity at 5 uM; design: scale not given: the % may be the effect or the level left
[6] = target: Homeodomain-interacting protein kinase 1 (Homo sapiens) (UniProt Q86Z02); assay: Inhibition of HIPK1 (unknown origin) assessed as enzyme activity at 5 uM; design: scale not given: the % may be the effect or the level left
[7] = target: Serine/threonine-protein kinase pim-1 (Homo sapiens) (UniProt P11309); assay: Inhibition of PIM1 (unknown origin) assessed as enzyme activity at 5 uM; design: scale not given: the % may be the effect or the level left
Homo sapiens [8] = species on record: Homo sapiens; assay: Inhibition of PKA (unknown origin) assessed as enzyme activity at 5 uM; design: scale not given: the % may be the effect or the level left
[9] = target: T2, Serine/threonine-protein kinase D2 (Homo sapiens) (UniProt Q9BZL6); assay: Inhibition of PRKD2 (unknown origin) assessed as enzyme activity at 5 uM; design: scale not given: the % may be the effect or the level left
T2 sequence (whole entry): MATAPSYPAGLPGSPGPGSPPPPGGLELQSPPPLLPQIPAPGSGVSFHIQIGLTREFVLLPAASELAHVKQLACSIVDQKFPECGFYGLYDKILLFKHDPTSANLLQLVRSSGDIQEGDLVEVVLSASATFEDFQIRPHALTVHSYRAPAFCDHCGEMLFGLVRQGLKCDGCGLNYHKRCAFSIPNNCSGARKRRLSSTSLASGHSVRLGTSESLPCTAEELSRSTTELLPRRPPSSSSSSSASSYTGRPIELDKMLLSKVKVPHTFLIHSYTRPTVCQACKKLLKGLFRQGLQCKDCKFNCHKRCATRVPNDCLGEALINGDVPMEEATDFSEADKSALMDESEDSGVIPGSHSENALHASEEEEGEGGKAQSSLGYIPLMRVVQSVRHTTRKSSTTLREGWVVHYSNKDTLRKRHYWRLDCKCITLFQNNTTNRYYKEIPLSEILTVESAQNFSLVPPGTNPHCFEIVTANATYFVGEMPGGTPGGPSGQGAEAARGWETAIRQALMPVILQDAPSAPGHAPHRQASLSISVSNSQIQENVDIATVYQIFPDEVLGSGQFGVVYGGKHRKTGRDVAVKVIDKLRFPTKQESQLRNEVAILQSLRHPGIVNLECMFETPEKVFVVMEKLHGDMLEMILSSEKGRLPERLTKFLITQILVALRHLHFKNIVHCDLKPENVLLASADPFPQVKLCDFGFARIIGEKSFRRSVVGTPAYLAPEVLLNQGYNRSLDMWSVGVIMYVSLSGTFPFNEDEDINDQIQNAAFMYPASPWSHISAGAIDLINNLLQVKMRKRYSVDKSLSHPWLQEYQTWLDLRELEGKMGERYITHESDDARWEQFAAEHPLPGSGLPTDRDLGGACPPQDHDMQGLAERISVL

CCRF-CEM [10] = assay: Cytotoxicity against human CCRF-CEM cells assessed as cell viability at 10 uM after 24 hrs by MTT assay; type: functional; conditions: read-out: Activity
CCRF-CEM [11] = assay: Cytotoxicity against human CCRF-CEM cells assessed as cell viability at 20 uM after 24 hrs by MTT assay; type: functional; conditions: read-out: Activity
CCRF-CEM [12] = assay: Cytotoxicity against human CCRF-CEM cells assessed as cell viability at 50 uM after 24 hrs by MTT assay; type: functional; conditions: read-out: Activity
MCF7 [13] = assay: Cytotoxicity against human MCF7 cells assessed as cell viability at 10 uM after 24 hrs by MTT assay; type: functional; conditions: MCF7, 24 h, read-out: Activity
MCF7 [14] = assay: Cytotoxicity against human MCF7 cells assessed as cell viability at 20 uM after 24 hrs by MTT assay; type: functional; conditions: MCF7, 24 h, read-out: Activity
MCF7 [15] = assay: Cytotoxicity against human MCF7 cells assessed as cell viability at 50 uM after 24 hrs by MTT assay; type: functional; conditions: MCF7, 24 h, read-out: Activity
CCRF-CEM [16] = assay: Induction of apoptosis in human CCRF-CEM cells assessed as viable cells at 10 uM after 24 hrs by annexinV and propidium iodide staining based FACS analysis (reference value: 96.4 +/- 1.2%); type: functional; conditions: read-out: Activity
CCRF-CEM [17] = assay: Induction of apoptosis in human CCRF-CEM cells assessed as viable cells at 50 uM after 24 hrs by annexinV and propidium iodide staining based FACS analysis (reference value: 96.4 +/- 1.2%); type: functional; conditions: read-out: Activity
CCRF-CEM [18] = assay: Induction of apoptosis in human CCRF-CEM cells assessed as early apoptotic cells at 10 uM after 24 hrs by annexinV and propidium iodide staining based FACS analysis (reference value: 1.5 +/- 0.8%); type: functional
CCRF-CEM [19] = assay: Induction of apoptosis in human CCRF-CEM cells assessed as early apoptotic cells at 50 uM after 24 hrs by annexinV and propidium iodide staining based FACS analysis (reference value: 1.5 +/- 0.8%); type: functional
CCRF-CEM [20] = assay: Induction of apoptosis in human CCRF-CEM cells assessed as late apoptotic cells at 10 uM after 24 hrs by annexinV and propidium iodide staining based FACS analysis (reference value: 1.9 +/- 0.5%); type: functional
CCRF-CEM [21] = assay: Induction of apoptosis in human CCRF-CEM cells assessed as late apoptotic cells at 50 uM after 24 hrs by annexinV and propidium iodide staining based FACS analysis (reference value: 1.9 +/- 0.5%); type: functional
CCRF-CEM [22] = assay: Induction of apoptosis in human CCRF-CEM cells assessed as necrotic cells at 10 uM after 24 hrs by annexinV and propidium iodide staining based FACS analysis (reference value: 0.1 +/- 0.1%); type: functional
CCRF-CEM [23] = assay: Induction of apoptosis in human CCRF-CEM cells assessed as necrotic cells at 50 uM after 24 hrs by annexinV and propidium iodide staining based FACS analysis (reference value: 0.1 +/- 0.1%); type: functional
[24] = target: Casein kinase II (Homo sapiens) (UniProt P67870+P68400+P19784); conditions: CCRF-CEM, 5 uM
[25] = target: T1, CDK2/Cyclin A2 (Homo sapiens); assay: Inhibition of CDK2/CycA2 (unknown origin) assessed as enzyme activity at 10 uM; type: protein-complex assay; design: scale not given: the % may be the effect or the level left
[26] = target: Casein kinase I isoform alpha (Homo sapiens) (UniProt P48729); assay: Inhibition of CK1-alpha1 (unknown origin) assessed as enzyme activity at 10 uM; design: scale not given: the % may be the effect or the level left
[27] = target: Dual specificity tyrosine-phosphorylation-regulated kinase 1A (Homo sapiens) (UniProt Q13627); assay: Inhibition of DYRK1A (unknown origin) assessed as enzyme activity at 10 uM; design: scale not given: the % may be the effect or the level left
[28] = target: Mitogen-activated protein kinase 3 (Homo sapiens) (UniProt P27361); assay: Inhibition of Erk1 (unknown origin) assessed as enzyme activity at 10 uM; design: scale not given: the % may be the effect or the level left
[29] = target: Homeodomain-interacting protein kinase 1 (Homo sapiens) (UniProt Q86Z02); assay: Inhibition of HIPK1 (unknown origin) assessed as enzyme activity at 10 uM; design: scale not given: the % may be the effect or the level left
[30] = target: Serine/threonine-protein kinase pim-1 (Homo sapiens) (UniProt P11309); assay: Inhibition of PIM1 (unknown origin) assessed as enzyme activity at 10 uM; design: scale not given: the % may be the effect or the level left
Homo sapiens [31] = species on record: Homo sapiens; assay: Inhibition of PKA (unknown origin) assessed as enzyme activity at 10 uM; design: scale not given: the % may be the effect or the level left
[32] = target: T2, Serine/threonine-protein kinase D2 (Homo sapiens); assay: Inhibition of PRKD2 (unknown origin) assessed as enzyme activity at 10 uM; design: scale not given: the % may be the effect or the level left

Row | Structure (SMILES) | viability at 10 µM (CCRF-CEM [10]) [%] | viability at 20 µM (CCRF-CEM [11]) [%] | viability at 50 µM (CCRF-CEM [12]) [%] | viability at 10 µM (MCF7 [13]) [%] | viability at 20 µM (MCF7 [14]) [%] | viability at 50 µM (MCF7 [15]) [%] | viability at 10 µM (CCRF-CEM [16]) [%] | viability at 50 µM (CCRF-CEM [17]) [%] | Activity (CCRF-CEM [18]) [%] | Activity (CCRF-CEM [19]) [%] | Activity (CCRF-CEM [20]) [%] | Activity (CCRF-CEM [21]) [%] | Activity (CCRF-CEM [22]) [%] | Activity (CCRF-CEM [23]) [%] | further results
1 | Cc1nc2c(Br)c(Br)c(Br)c(Br)c2[nH]1 | 29 | 15 | 6 | 76 | 66 | 33 | 36.7 | 14.2 | 47.3 | 59.8 | 15.3 | 27.3 | 0.5 | 0.4 | Ki [1]: 1.11 µM; Activity [2]: 20%; Activity [3]: 84%; Activity [4]: 17%; Activity [5]: 92%; Activity [6]: 43%; Activity [7]: 6%; Activity (Homo sapiens [8]): 113%; Activity [9]: 14%; inhibition [24]: 20%
2 | Cc1nc2c(Br)c(Br)c(Br)c(Br)c2n1CCC#N | 84 | 51 | 2 | 85 | 74 | 15 | 82 | 6.2 | 10.6 | 69.6 | 7.1 | 20.1 | 0.2 | 0.9 | –
3 | N#CCn1cnc2c(Br)c(Br)c(Br)c(Br)c21 | 63 | 28 | 2 | 87 | 65 | 43 | 76.2 | 14.8 | 12.3 | 62.7 | 8.8 | 20.4 | 0.5 | 0.8 | –
4 | N#CCCn1cnc2c(Br)c(Br)c(Br)c(Br)c21 | 80 | 44 | 2 | 81 | 72 | 23 | 90.6 | 5.4 | 5.4 | 77.2 | 3.9 | 17 | 0.1 | 0.4 | –
5 | Cc1nc2c(Br)c(Br)c(Br)c(Br)c2n1CC#N | 45 | 14 | 2 | 52 | 36 | 11 | 52 | 2.4 | 28.9 | 59.7 | 17.8 | 33.9 | 0.8 | 0.6 | –
6 | Cc1nc2c(Br)c(Br)c(Br)c(Br)c2n1CCCCC#N | 92 | 61 | 55 | 109 | 110 | 42 | 93.5 | 30.2 | 3.6 | 39.9 | 2.9 | 29.3 | 0.1 | 0.6 | –
7 | Cc1nc2c(Br)c(Br)c(Br)c(Br)c2n1CCCC#N | 68 | 44 | 1 | 65 | 56 | 5 | 82.4 | 3.3 | 10.8 | 14.7 | 6.3 | 76.3 | 0.5 | 5.7 | –
8 | N#CCCCn1cnc2c(Br)c(Br)c(Br)c(Br)c21 | 85 | 70 | 2 | 89 | 70 | 16 | 92.8 | 21.5 | 3.3 | 41.1 | 3.8 | 33.3 | 0.1 | 2.3 | –
9 | Brc1c(Br)c(Br)c2[nH]cnc2c1Br | 92 | 67 | 7 | 94 | 77 | 40 | 94.8 | 18.8 | 2.4 | 59.2 | 2.7 | 26 | 0.1 | 1 | Activity [25]: 23%; Activity [26]: 48%; Activity [27]: 3%; Activity [28]: 78%; Activity [29]: 9%; Activity [30]: 2%; Activity (Homo sapiens [31]): 75%; Activity [32]: 5%
10 | N#CCCCCn1cnc2c(Br)c(Br)c(Br)c(Br)c21 | 98 | 70 | 1 | 102 | 99 | 18 | 93.6 | 14.3 | 3.2 | 39.9 | 3.1 | 44.9 | 0.1 | 0.9 | –
